Test results: patent US9067934B2, “Bicyclic pyridinones” (Pfizer Inc., priority 2011, dated 2015)
Structures can show the parent of a compound that is named as a salt.

Test system: production of amyloid beta protein Aβ(1-42) (γ-secretase) in human WT-APP overexpressing CHO cells
Assay: Cell-Based γ-Secretase Assay with ELISA Readout
Settings: human WT-APP overexpressing CHO cells, ~24 hours at 37° C., Aβ(1-42) ELISA; footnotes: a = geometric mean of >15 determinations, b = single determination, c = geometric mean of 7-15 determinations; read-out: Aβ 42B IC50 (Geometric Mean of 2-6 Determinations)
Procedure: Cell-Based γ-Secretase Assay with ELISA Readout
The ability of compounds to modulate production of amyloid beta protein Aβ(1-42) was determined using human WT-APP overexpressing CHO cells. Cells were plated at 22,000 cells/100 μL well in 96 well tissue culture treated, clear plates (Falcon) in DMEM/F12 based medium and incubated for 24 hours at 37° C. Compounds for testing were diluted in 100% DMSO to achieve an eleven points, half log, dose response for IC50 determinations. Compounds were added in fresh medium to achieve 1% final DMSO. Appropriate vehicle or inhibitor controls were added into control wells individually to obtain minimum or maximum inhibition values, respectively, for the assay signal window before the plates were incubated for ˜24 hours at 37° C. This procedure produces conditioned media in each well which is tested for Aβ(1-42) levels in the ELISA detection step described next. The remaining cell cultures in each well are also tested for cell toxicity as described below.
Coating of ELISA assay plates was initiated by addition of 50 μL/well of an in-house Aβ(1-42) specific antibody at (3 μg/mL) in 0.1 M NaHCO3 (pH 9.0) into black 384-well Maxisorp® plates (Nunc) and incubated overnight at 4° C. The capture antibody was then aspirated from the ELISA assay plates and plates were washed 4×100 μL with Wash Buffer (Dulbecco's PBS, 0.05% Tween 20). 90 μL/well of Blocking Buffer (Dulbecco's PBS, 1.0% BSA (Sigma A7030)) was then added to plates. Ambient temperature incubation was allowed to proceed for a minimum of two hours. Blocking buffer was then removed and 20 μL/well Assay Buffer (Dulbecco's PBS, 1.0% BSA (Sigma A7030), 0.05% Tween 20) was then added. At this point, 40 μL (in duplicate) of experimental conditioned media (described above) were transferred into wells of the blocked ELISA plates containing the capture antibody, followed by overnight incubation at 4° C. Cell toxicity was also measured in the corresponding remaining cells after removal of the conditioned media for the Aβ(1-42) assay by a colorimetric cell proliferation assay (CellTiter 96® AQueous One Solution Cell Proliferation Assay, Promega) according to the manufacturer's instructions.
After overnight incubation of the ELISA assay plates at 4° C., unbound Aβ peptides were removed via (4×100 μL) washes with Wash Buffer. Europium (Eu) labeled (custom labeled, Perkin Elmer) Aβ(1-16) 6e10 Monoclonal Antibody (Covance #SIG-39320) was added, (50 μL/well Eu-6e10 @ 1:10,000, 20 uM EDTA) in Assay Buffer. Incubation at ambient temperature for a minimum of 2 hours was followed by (4×100 μL) washes with Wash Buffer, before 30 μL/well of Delfia Enhancement Solution (Perkin Elmer) was added. Following an one hour ambient temperature incubation, the plates were read on an EnVision plate reader (Perkin Elmer) using standard DELFIA TRF settings. Data analysis including inhibitory IC50 determination was performed using nonlinear regression fit analysis (in-house software) and the appropriate plate mean values for the maximum and minimum inhibition controls.

Question: Cc1cn(-c2ccc3n(c2=O)CCN(CCOc2ccccc2-c2ccc4c(c2)OCO4)C3=O)cn1 [Example 91, 2-{2-[2-(1,3-benzodioxol-5-yl)phenoxy]ethyl}-7-(4-methyl-1H-imidazol-1-yl)-3,4-dihydro-2H-pyrido[1,2-a]pyrazine-1,6-dione, formate salt] was tested. Which IC50 did it give?
Answer: 120 nM

Question: Which IC50 does the source give for Cc1cn(-c2ccc3n(c2=O)CCN(CCOc2cccc4oc5ccccc5c24)C3=O)cn1 [Example 42, 2-[2-(dibenzo[b,d]furan-1-yloxy)ethyl]-7-(4-methyl-1H-imidazol-1-yl)-3,4-dihydro-2H-pyrido[1,2-a]pyrazine-1,6-dione, trifluoroacetate salt] here?
Answer: 5.31 nM

Question: Which IC50 does the source give for Cc1ccc(-c2ccccc2OCCN2CCn3c(ccc(-n4cnc(C)c4)c3=O)C2=O)cc1 [Example 93, 2-{2-[(4′-methylbiphenyl-2-yl)oxy]ethyl}-7-(4-methyl-1H-imidazol-1-yl)-3,4-dihydro-2H-pyrido[1,2-a]pyrazine-1,6-dione, formate salt] here?
Answer: 75.8 nM

Question: Which IC50 does the source give for Cc1cn(-c2ccc3n(c2=O)CCN(CCOc2ccc(Cl)c4c2CCC4)C3=O)cn1 [Example 9, 2-{2-[(7-chloro-2,3-dihydro-1H-inden-4-yl)oxy]ethyl}-7-(4-methyl-1H-imidazol-1-yl)-3,4-dihydro-2H-pyrido[1,2-a]pyrazine-1,6-dione] here?
Answer: 83.9 nM

Question: For Cc1cn(-c2ccc3n(c2=O)CCN(CCOc2ccc(F)c4ccc(F)cc24)C3=O)cn1 [Example 98, 2-{2-[(4,7-difluoronaphthalen-1-yl)oxy]ethyl}-7-(4-methyl-1H-imidazol-1-yl)-3,4-dihydro-2H-pyrido[1,2-a]pyrazine-1,6-dione], which IC50 is on record?
Answer: 19.4 nM

Question: With Cc1cn(-c2ccc3n(c2=O)CCN(CCOc2cccc4ccccc24)C3=O)cn1 [Example 3, 7-(4-methyl-1H-imidazol-1-yl)-2-[2-(1-naphthyloxy)ethyl]-3,4-dihydro-2H-pyrido[1,2-a]pyrazine-1,6-dione] as the compound, how does the IC50 read?
Answer: 86 nM

Question: For Cc1cn(-c2ccc3n(c2=O)CCN(CCOc2ccccc2C(C)(C)C)C3=O)cn1 [Example 13, 2-[2-(2-tert-butylphenoxy)ethyl]-7-(4-methyl-1H-imidazol-1-yl)-3,4-dihydro-2H-pyrido[1,2-a]pyrazine-1,6-dione], which IC50 is on record?
Answer: 108 nM

Question: With Cc1cn(-c2ccc3n(c2=O)CCN(CCOc2ccc(F)cc2C2(C(F)(F)F)CCO2)C3=O)cn1 (stereo not drawn) [Example 122, 2-(2-{4-fluoro-2-[2-(trifluoromethyl)oxetan-2-yl]phenoxy}ethyl)-7-(4-methyl-1H-imidazol-1-yl)-3,4-dihydro-2H-pyrido[1,2-a]pyrazine-1,6-dione, trifluoroacetate salt] as the compound, how does the IC50 read?
Answer: 85.6 nM

Question: For Cc1cn(-c2ccc3n(c2=O)CCN(CCOc2nsc4ccc(Cl)cc24)C3=O)cn1 [Example 77, 2-{2-[(5-chloro-1,2-benzisothiazol-3-yl)oxy]ethyl}-7-(4-methyl-1H-imidazol-1-yl)-3,4-dihydro-2H-pyrido[1,2-a]pyrazine-1,6-dione], which IC50 is on record?
Answer: 66.2 nM

Question: With Cc1cn(-c2ccc3n(c2=O)CCN(CCOc2ccc(Cl)cc2C24CC(C2)C4)C3=O)cn1 [Example 110, 2-{2-[2-(bicyclo[1.1.1]pent-1-yl)-4-chlorophenoxy]ethyl}-7-(4-methyl-1H-imidazol-1-yl)-3,4-dihydro-2H-pyrido[1,2-a]pyrazine-1,6-dione] as the compound, how does the IC50 read?
Answer: 14.5 nM

Question: With Cc1cn(-c2ccc3n(c2=O)CCN(CCOc2ccc(F)c(Cl)c2C(F)(F)F)C3=O)cn1 [Example 67, 2-{2-[3-chloro-4-fluoro-2-(trifluoromethyl)phenoxy]ethyl}-7-(4-methyl-1H-imidazol-1-yl)-3,4-dihydro-2H-pyrido[1,2-a]pyrazine-1,6-dione] as the compound, how does the IC50 read?
Answer: 58.4 nM

Question: For Cc1cn(-c2ccc3n(c2=O)CCN(CCOc2ccccc2C2CCC2)C3=O)cn1 [Example 25, 2-[2-(2-cyclobutylphenoxy)ethyl]-7-(4-methyl-1H-imidazol-1-yl)-3,4-dihydro-2H-pyrido[1,2-a]pyrazine-1,6-dione], which IC50 is on record?
Answer: 73.2 nM

Question: Cc1cn(-c2ccc3n(c2=O)CCN(CCOc2ccccc2-c2cccc(F)c2)C3=O)cn1 [Example 88, 2-{2-[(3′-fluorobiphenyl-2-yl)oxy]ethyl}-7-(4-methyl-1H-imidazol-1-yl)-3,4-dihydro-2H-pyrido[1,2-a]pyrazine-1,6-dione, formate salt] was tested. Which IC50 did it give?
Answer: 75.4 nM

Question: For Cc1cn(-c2ccc3n(c2=O)CCN(CCOc2cccc4ccc(F)cc24)C3=O)cn1 [Example 83, 2-{2-[(7-fluoronaphthalen-1-yl)oxy]ethyl}-7-(4-methyl-1H-imidazol-1-yl)-3,4-dihydro-2H-pyrido[1,2-a]pyrazine-1,6-dione], which IC50 is on record?
Answer: 12.3 nM

Question: With Cc1cn(-c2ccc3n(c2=O)CCN(C(C)C(C)Oc2ccccc2S(F)(F)(F)(F)F)C3=O)cn1 (single isomer, unassigned) [Example 125, 7-(4-methyl-1H-imidazol-1-yl)-2-{3-[2-(pentafluoro-λ^6-sulfanyl)phenoxy]butan-2-yl}-3,4-dihydro-2H-pyrido[1,2-a]pyrazine-1,6-dione] as the compound, how does the IC50 read?
Answer: 653 nM

Question: Cc1cn(-c2ccc3n(c2=O)CCN(CCOc2ccc(Cl)cc2-c2ccon2)C3=O)cn1 [Example 43, 2-[2-(4-chloro-2-isoxazol-3-ylphenoxy)ethyl]-7-(4-methyl-1H-imidazol-1-yl)-3,4-dihydro-2H-pyrido[1,2-a]pyrazine-1,6-dione, trifluoroacetate salt] was tested. Which IC50 did it give?
Answer: 283 nM

Question: For Cc1cn(-c2ccc3n(c2=O)CCN(C(C)C(C)Oc2ccccc2S(F)(F)(F)(F)F)C3=O)cn1 (stereo not drawn) [Example 123, 7-(4-methyl-1H-imidazol-1-yl)-2-{3-[2-(pentafluoro-λ^6-sulfanyl)phenoxy]butan-2-yl}-3,4-dihydro-2H-pyrido[1,2-a]pyrazine-1,6-dione], which IC50 is on record?
Answer: 106 nM

Question: Cc1cn(-c2ccc3n(c2=O)CCN(CC(C)(C)Oc2cccc(Cl)c2Cl)C3=O)cn1 [Example 4, 2-[2-(2,3-dichlorophenoxy)-2-methylpropyl]-7-(4-methyl-1H-imidazol-1-yl)-3,4-dihydro-2H-pyrido[1,2-a]pyrazine-1,6-dione] was tested. Which IC50 did it give?
Answer: 146 nM

Question: Cc1cn(-c2ccc3n(c2=O)CCN(CCOc2cccc(Oc4ccccc4)c2)C3=O)cn1 [Example 19, 7-(4-methyl-1H-imidazol-1-yl)-2-[2-(3-phenoxyphenoxy)ethyl]-3,4-dihydro-2H-pyrido[1,2-a]pyrazine-1,6-dione] was tested. Which IC50 did it give?
Answer: 203 nM

Question: For Cc1cn(-c2ccc3n(c2=O)CCN(CCOc2ccc(F)cc2C2CC2)C3=O)cn1 [Example 21, 2-[2-(2-cyclopropyl-4-fluorophenoxy)ethyl]-7-(4-methyl-1H-imidazol-1-yl)-3,4-dihydro-2H-pyrido[1,2-a]pyrazine-1,6-dione], which IC50 is on record?
Answer: 262 nM

Question: How did the IC50 turn out when O=C1c2ccc(-n3cnc(Cl)c3)c(=O)n2CCN1CCOc1ccccc1C(F)(F)F [Example 114, 7-(4-chloro-1H-imidazol-1-yl)-2-{2-[2-(trifluoromethyl)phenoxy]ethyl}-3,4-dihydro-2H-pyrido[1,2-a]pyrazine-1,6-dione] was run?
Answer: 1320 nM

Question: How did the IC50 turn out when Cc1ncc(-c2ccc3n(c2=O)CCN(CCOc2cccc4ccc(F)cc24)C3=O)o1 [Example 2, 2-{2-[(7-Fluoronaphthalen-1-yl)oxy]ethyl}-7-(2-methyl-1,3-oxazol-5-yl)-3,4-dihydro-2H-pyrido[1,2-a]pyrazine-1,6-dione] was run?
Answer: 434 nM

Question: Which IC50 does the source give for Cc1cn(-c2ccc3n(c2=O)CCN(CCOc2ccc(F)c4nc(C(F)(F)F)sc24)C3=O)cn1 [Example 73, 2-(2-{[4-fluoro-2-(trifluoromethyl)-1,3-benzothiazol-7-yl]oxy}ethyl)-7-(4-methyl-1H-imidazol-1-yl)-3,4-dihydro-2H-pyrido[1,2-a]pyrazine-1,6-dione] here?
Answer: 43.7 nM

Question: Which IC50 does the source give for Cc1cn(-c2ccc3n(c2=O)CCN(CCOc2cccc4cc(F)ccc24)C3=O)cn1 [Example 53, 2-{2-[(6-fluoro-1-naphthyl)oxy]ethyl}-7-(4-methyl-1H-imidazol-1-yl)-3,4-dihydro-2H-pyrido[1,2-a]pyrazine-1,6-dione, trifluoroacetate salt] here?
Answer: 26.2 nM
